According to EP0919125A1, “Synergistic antimicrobial composition” (Calgon Corporation, priority 1997, dated 1999):
Read-outs that look alike come from different tables or passages of the source.

Key:
Assay type in all cases: cell-based
[1] = system: Pseudomonas aeruginosa (ATCC 15442); assay: Microtiter test of biocidal efficacy and synergy (MIC/MBC, Kull K value), Example 1
Protocol: An 8X stock solution of DBDCB was prepared by dissolving about 3.2 grams (g) of 20% active DBDCB in about 4 ml of methanol and diluting the volume up to about 100 ml with deionized water. The DBDCB used in the examples was obtained from Calgon Corporation, Pittsburgh, PA, as Merguard® 1200. A Triclosan 4X stock solution was prepared by dissolving about 0.16g of about 99% active Triclosan in about 5 ml of methanol and diluting the volume up to about 100 ml with deionized water. The Triclosan was obtained from Ciba Geigy as Irgasan® DP 300.
Two microtiter plates were prepared for use in the example, each microtiter plate having 8 rows, A-H, and 12 columns, 1-12. The amount of each biocide in each well of the plates is depicted below.
The amount of biocide in each well of the second microtiter plate of each set was a follows: TABLE 2
(§1) The minimum inhibitory concentration (MIC) for each biocide combination against Ps. aeruginosa was determined. The MIC is the least amount of biocide needed to prevent growth in the well, with growth being defined as turbidity in the medium or a "pellet" of cells which came out of the medium and settled at the bottom of the well.
Additional plates were then subcultured from the MIC plates at 24 hours following biocide addition. Subculturing was done to determine the minimum biocidal concentration (MBC). […]

[2] = system: Pseudomonas aeruginosa (ATCC 15442); assay: Microtiter test of biocidal efficacy and synergy (Kull K value), Example II, bacterium
Protocol: as §1
(§2) Additional plates were then subcultured from the MIC plates at 24 hours following biocide addition. Subculturing was done to determine the minimum biocidal concentration (MBC). The MBC is the lowest concentration of biocide that results in no growth after subculturing and subsequent incubation.
(§3) All of the microtiter plates including the MIC plates and the MBC plates were incubated for 24 hours at 37°C. Following the 24 hour incubation period, the presence or absence of growth in each well of the plates was determined. Growth in the microtiter plates was determined with a Dynatech MR-5000 microplate reader, available from Dynatech Laboratories, Chantilly, VA, USA, the use of which will be familiar to one having ordinary skill in the art. The presence or absence of growth in each well, along with the concentration of biocide in each well, was then used to determine the synergistic properties of the biocide combinations. The synergistic properties were evaluated by determining the Kull value, or K value. The method for calculating K value is well known to those skilled in the art. In this example, the K value was determined by the following formula: K=([DBDCB] In Combination)/([DBDCB] Alone)+([Triclosan] In Combination)/([Triclosan] Alone) [formula] where "[DBDCB]
A K value of less than 1 indicates synergy between the two biocides, a K value of greater than 1 indicates antagonism between the two biocides, and a K value equal to 1 indicates an additive effect of the two biocides.
Example I was repeated with the following differences. The DBDCB was tested at the following concentrations: 200, 100, 50, 25, 12.5, 6.25 and 3.125, with concentration given in ppm active. […]

[3] = system: Candida albicans (ATCC 10231); assay: Microtiter test of biocidal efficacy and synergy (Kull K value), Example II, yeast; conditions: ATCC10231, 120 h
Protocol: as §1, §2
as §3, with “The method for calculating K value is well known to those skilled in the art. In this example, the K value was determined by the following formula: K=([DBDCB] In Combination)/([DBDCB] Alone)+([Triclosan] In Combination)/([Triclosan] Alone) [formula] where "[DBDCB]” left out

| SMILES | MIC ([1]; ATCC15442, concentration of DBDCB which, used alone, resulted in inhibition of microbial growth, ppm active, 24 hours at 37°C, read-out: [DBDCB] Alone) [µg/mL] | MIC ([2]; DBDCB alone, inhibition of microbial growth, ppm active, 35°C for 24 hours) [ppm] | MIC ([2]; Pseudomonas aeruginosa, ATCC15442, 24 h, DBDCB alone, inhibition of microbial growth, ppm active, 35°C for 24 hours, read-out: [DBDCB] Alone) [µg/mL] | MIC ([3]; DBDCB alone, inhibition of microbial growth, ppm active, 30°C for 5 days, read-out: [DBDCB] Alone) [µg/mL] | MIC ([1]; ATCC15442, 24 h, read-out: [Triclosan] Alone) [µg/mL] | MIC ([2]; Pseudomonas aeruginosa, ATCC15442, 24 h, read-out: [Triclosan] Alone) [µg/mL] | MIC ([3]; read-out: [Triclosan] Alone) [µg/mL] |
| --- | --- | --- | --- | --- | --- | --- | --- |
| N#CCCC(Br)(C#N)CBr (stereo not shown) [DBDCB, 1,2-dibromo-2,4-dicyanobutane] | 200 | 200 | 100 | 100 |  |  |  |
| Oc1cc(Cl)ccc1Oc1ccc(Cl)cc1Cl [Triclosan, 2,4,4'-trichloro-2'-hydroxydiphenyl ether] |  |  |  |  | 100 | > 100 | 12.5 |
